Data published in patent publication US20060252766A1, “Methods using a combination of 3-heteroaryl-2-indolinone and a cyclooxygenase-2 inhibitor for the treatment of neoplasia” (PFIZER INC, priority 2002, published 2006).
Values joined by “and” are separate entries in the source; they are usually repeats but may differ in a detail not shown here. Identical values can stand only once.

Tested on: 1483 human head and neck squamous cell carcinoma (HNSCC) xenograft
Experiment: HN1483 tumor model: paw tumor volume of treated mice
Assay type: in vivo, nude mice
Conditions: for Paw volume, paw / Tumor vol.: individual mice; for Tumor vol.: paw minus BKG. 0.10
[1] = Celecoxib/40 ppm, Day 17 Mar. 16, 2001
[2] = Celecoxib/40 ppm, Day 21 Mar. 20, 2001
[3] = Celecoxib/40 ppm, Day 24 Mar. 23, 2001
[4] = Celecoxib/40 ppm, Day 31 Apr. 2, 2001
[5] = Celecoxib/40 ppm, Day 31 Mar. 30, 2001
[6] = Celecoxib/160 ppm, Day 17 Mar. 16, 2001
[7] = Celecoxib/160 ppm, Day 21 Mar. 20, 2001
[8] = Celecoxib/160 ppm, Day 24 Mar. 23, 2001
[9] = Celecoxib/160 ppm, Day 31 Apr. 2, 2001
[10] = Celecoxib/160 ppm, Day 31 Mar. 30, 2001

Q: Which “Paw volume, paw” value (Celecoxib/40 ppm, Day 14 Mar. 13, 2001) does the source give for `Cc1ccc(-c2cc(C(F)(F)F)nn2-c2ccc(S(N)(=O)=O)cc2)cc1` [Celecoxib, celecoxib, reference compound] here?
A: The value was 0.28 (2×) and 0.25 (2×) and 0.24 (2×) and 0.29 and 0.27.

Q: And the “Tumor vol. Average” value (Celecoxib/40 ppm, Day 17 Mar. 16, 2001, group average)?
A: The value was 0.17.

Q: And the “Paw volume, paw” value [1]?
A: The value was 0.3 and 0.29 (2×) and 0.22 and 0.32 and 0.27 and 0.25 (2×).

Q: And the Tumor vol. [1]?
A: The Tumor vol. was 0.20 and 0.19 (2×) and 0.12 and 0.22 and 0.17 and 0.15 (2×).

Q: What about the “Tumor vol. Average” value (Celecoxib/40 ppm, Day 21 Mar. 20, 2001, group average) of the same compound?
A: The value was 0.22.

Q: What about the “Paw volume, paw” value [2] of the same compound?
A: Its value is 0.38 (2×) and 0.23 and 0.36 and 0.28 (2×) and 0.39 and 0.31.

Q: And the Tumor vol. [2]?
A: The Tumor vol. was 0.28 (3×) and 0.13 and 0.18 (2×) and 0.29 and 0.21.

Q: What about the “Tumor vol. Average” value (Celecoxib/40 ppm, Day 24 Mar. 23, 2001, group average) of the same compound?
A: Its value is 0.23.

Q: What about the “Paw volume, paw” value [3] of the same compound?
A: Its value is 0.37 and 0.32 and 0.23 and 0.44 and 0.28 and 0.29 and 0.47 and 0.27.

Q: What about the Tumor vol. [3] of the same compound?
A: Its Tumor vol. is 0.27 and 0.22 and 0.13 and 0.34 and 0.18 and 0.19 and 0.37 and 0.17.

Q: And the “Tumor vol. Average” value (Celecoxib/40 ppm, Day 31 Apr. 2, 2001, group average)?
A: The value was 0.48.

Q: What about the “Paw volume, paw” value [4] of the same compound?
A: The value was 0.7 and 0.48 (2×) and 0.25 and 0.75 and 0.44 and 0.38 and 0.89.

Q: And the Tumor vol. [4]?
A: The Tumor vol. was 0.60 and 0.38 (2×) and 0.18 and 0.55 and 0.34 and 0.28 and 0.79.

Q: What about the “Tumor vol. Average” value (Celecoxib/40 ppm, Day 31 Mar. 30, 2001, group average) of the same compound?
A: The value was 0.40.

Q: And the “Paw volume, paw” value [5]?
A: Its value is 0.63 and 0.51 and 0.27 and 0.72 and 0.30 and 0.39 and 0.71 and 0.41.

Q: What about the Tumor vol. [5] of the same compound?
A: Its Tumor vol. is 0.53 and 0.41 and 0.17 and 0.82 and 0.29 and 0.20 and 0.61 and 0.31.

Q: What about the “Paw volume, paw” value (Celecoxib/160 ppm, Day 14 Mar. 13, 2001) of the same compound?
A: Its value is 0.19 and 0.26 and 0.22 and 0.3 and 0.23 (3×) and 0.28.

Q: And the “Tumor vol. Average” value (Celecoxib/160 ppm, Day 17 Mar. 16, 2001, group average (row not labelled))?
A: The value was 0.18.

Q: And the “Paw volume, paw” value [6]?
A: The value was 0.24 and 0.25 (2×) and 0.21 and 0.31 and 0.23 and 0.29 and 0.27.

Q: What about the Tumor vol. [6] of the same compound?
A: Its Tumor vol. is 0.14 and 0.15 (2×) and 0.11 and 0.21 and 0.13 and 0.19 and 0.17.

Q: And the “Tumor vol. Average” value (Celecoxib/160 ppm, Day 21 Mar. 20, 2001, group average (row not labelled))?
A: The value was 0.15.

Q: And the “Paw volume, paw” value [7]?
A: Its value is 0.22 and 0.28 (2×) and 0.24 and 0.32 and 0.3 (2×) and 0.25.

Q: And the Tumor vol. [7]?
A: The Tumor vol. was 0.12 and 0.16 (3×) and 0.14 and 0.22 and 0.20 (2×).

Q: And the “Tumor vol. Average” value (Celecoxib/160 ppm, Day 24 Mar. 23, 2001, group average (row not labelled))?
A: Its value is 0.19.

Q: What about the “Paw volume, paw” value [8] of the same compound?
A: Its value is 0.22 and 0.28 and 0.24 (2×) and 0.38 and 0.27 and 0.35 and 0.31.

Q: What about the Tumor vol. [8] of the same compound?
A: The Tumor vol. was 0.12 and 0.16 and 0.14 (2×) and 0.28 and 0.17 and 0.26 and 0.21.

Q: What about the “Tumor vol. Average” value (Celecoxib/160 ppm, Day 31 Apr. 2, 2001, group average (row not labelled)) of the same compound?
A: Its value is 0.29.

Q: And the “Paw volume, paw” value [9]?
A: Its value is 0.33 (3×) and 0.57 and 0.29 and 0.59 and 0.4 and 0.28.

Q: And the Tumor vol. [9]?
A: The Tumor vol. was 0.23 (2×) and 0.22 and 0.47 and 0.19 and 0.49 and 0.30 and 0.10.

Q: And the “Tumor vol. Average” value (Celecoxib/160 ppm, Day 31 Mar. 30, 2001, group average (row not labelled))?
A: Its value is 0.29.

Q: And the “Paw volume, paw” value [10]?
A: Its value is 0.38 and 0.32 and 0.3 and 0.49 and 0.33 and 0.57 and 0.4 and 0.5.

Q: What about the Tumor vol. [10] of the same compound?
A: The Tumor vol. was 0.28 and 0.22 and 0.20 (2×) and 0.39 and 0.23 and 0.47 and 0.30.
